{"source": "ChEMBL document CHEMBL1136865", "about": "“Effects of detergents on the West Nile virus protease activity” (Bioorg Med Chem, 2009)", "key": {"West Nile virus [1]": {"system": "West Nile virus", "assay": "Increase in West Nile virus NS3 protease activity at =>0.01 to 0.1 % by spectrofluorimetry using Boc-Gly-Lys-Arg-AMC substrate relative to control"}, "West Nile virus [2]": {"system": "West Nile virus", "assay": "Increase in West Nile virus NS3 protease activity up to 0.5% by spectrofluorimetry using Boc-Gly-Lys-Arg-AMC substrate relative to control"}}, "note": "Active and inactive are the calls of the source. The rule behind the calls is not given here."}
{"compound": "C[C@H](CCC(=O)NCCC[N+](C)(C)CCCS(=O)(=O)[O-])[C@H]1CC[C@H]2[C@@H]3[C@H](O)C[C@@H]4C[C@H](O)CC[C@]4(C)[C@H]3C[C@H](O)[C@]12C", "values": [{"measurement": "Activity", "setting": "West Nile virus [1]", "result": "inactive"}, {"measurement": "Activity", "setting": "West Nile virus [2]", "result": "inactive"}]}
